Reference: patent publication US10463664B2, “Inhibitors of HSV nucleotidyl transferases and uses therefor” (Saint Louis University, priority 2013, dated 2019)

Key:
HBV RNaseH = biological target: T1, HBV RNaseH (Hepatitis B virus genotype A2 subtype adw2, UniProt P03159); test: Biochemical inhibition of HBV RNaseH (oligonucleotide-directed RNA cleavage assay); conditions: compounds at 60, 20 or 10 μM
T1 construct: One of the inventors recently produced active recombinant HBV RNase H; hexahistidine; made in house; host or cells: E. coli
Method: (§1) Biochemical inhibition of HBV RNaseH and human RNaseH1 activity. […] RNaseH activity was measured using an oligonucleotide-directed RNA cleavage assay in which a DNA oligonucleotide is annealed to an internally ^32P-labeled RNA, the RNA:DNA heteroduplex is incubated with the enzyme to permit cleavage, and then the RNA cleavage products are resolved by electrophoresis and detected by autoradiography. The compounds were included in the reaction mixes at 60, 20, or 10 μM and the amount of the RNA cleavage products in the compound-containing reactions was compared to reactions in which an equivalent concentration of DMSO was added as a vehicle control. The data were quantified using ImageJ.

HSV-1 [1] = test: Anti-HSV-1 replication assay in Vero cells, titer by plaque assay; assay type: cell-based, herpes simplex virus 1; conditions: for Anti-HSV-1 Log10 suppression 5 μM / Anti-HSV-1 Log10 suppression 50 μM: moi 0.1, 24 h, relative to DMSO; for Anti-HSV-1 Log10 suppression 5 μM (screening symbol) / Anti-HSV-1 Log10 suppression 50 μM (screening symbol): visual inspection
Method: (§2) Anti-HSV-1 and -HSV-2 Replication Assay. Compounds to be screened were diluted in PBS supplemented to contain 2% newborn calf serum and 1% glutamine, and added in 100 μL, volume to confluent cell monolayers in 24-well cluster plates. Immediately thereafter HSV-1 and HSV-2, diluted in the supplemented PBS medium, were added to the wells in 50 μl volume such that the final concentration of compound was 50 μM and 5 μM and the multiplicity of infection was 0.1. The plates were incubated at 37° C. for 1 hour and then virus-containing inoculum was removed and the wells were washed once in PBS. Compounds, diluted to 50 μM and 5 μM in DMEM supplemented to contain 2% newborn calf serum and 1% each penicillin/streptomycin, were added at 0.5 mL/well. Plates were incubated at 37° C. an additional 23 hr, and then the plates were visually inspected through a phase contrast microscope for cytopathic effect, and for toxic effect. […] The entire contents of each well were collected by scraping. Samples were frozen at −80° C., and then subsequently thawed, sonicated, and infectious virus titer was determined by standard plaque assay on Vero cell monolayers. Because the compounds were dissolved at 10 mM in 100% DMSO, equivalent dilutions of DMSO were added to additional wells as a control for effects of the diluent. Each experiment was repeated once. EC50 values were determined as above except that serial dilutions of the compound to be tested were prepared starting at 50 μM. The inhibitory values were calculated by non-linear curve-fitting in GraphPad Prism.
(§3) Monolayers were microscopically inspected 24 hours post-infection and wells in which more cells were visually healthier than the DMSO-treated controls were collected. Viral titers in the culture lysates were then determined by standard plaque assay on Vero cells. Inhibition of viral replication was categorized as <1 log10 relative to the DMSO-treated control, 1 to 3 log10 suppression, or ≥3 log10 suppression. […] Additionally, four polyoxygenated heterocycle compounds were tested (#128, 138, 139, 140).

HSV-2 [2] = test: Anti-HSV-2 replication assay in Vero cells, titer by plaque assay; assay type: cell-based, herpes simplex virus 2; conditions: for Anti-HSV-2 Log10 suppression 5 μM / Anti-HSV-2 Log10 suppression 50 μM: moi 0.1, 24 h, relative to DMSO; for Anti-HSV-2 Log10 suppression 5 μM (screening symbol) / Anti-HSV-2 Log10 suppression 50 μM (screening symbol): visual inspection
Method: as §2, §3

human RNaseH1 = biological target: T2, human RNaseH1 (Homo sapiens, UniProt O60930); test: Biochemical inhibition of human RNaseH1 (oligonucleotide-directed RNA cleavage assay); conditions: compounds at 60, 20 or 10 μM
T2 construct: hexahistidine; made in house; host or cells: E. coli
T2 sequence (O60930 1-286): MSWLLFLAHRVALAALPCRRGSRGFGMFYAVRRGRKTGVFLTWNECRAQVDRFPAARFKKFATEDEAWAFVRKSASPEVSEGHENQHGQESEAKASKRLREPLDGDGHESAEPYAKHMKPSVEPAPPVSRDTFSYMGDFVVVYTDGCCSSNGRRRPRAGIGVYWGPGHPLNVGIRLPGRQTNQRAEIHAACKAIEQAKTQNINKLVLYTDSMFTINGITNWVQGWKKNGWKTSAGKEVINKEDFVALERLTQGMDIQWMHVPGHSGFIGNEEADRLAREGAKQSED
Method: as §1

HSV-2 [3] = test: HSV-2 replication inhibition in primary human foreskin fibroblasts; assay type: cell-based, herpes simplex virus 2; conditions: HFF cells, relative to DMSO-treated control
Method: as §2
(§4) Inhibition of viral replication was next assessed in human foreskin fibroblasts (HFF) to determine whether NTS inhibitors could block HSV-1 and HSV-2 replication in a physiologically relevant, primary human cell type. […] Viral yields 24 hours post-infection were measured by plaque assay.

[4] = test system: primary human foreskin fibroblasts; test: in vitro
Method: Toxicity Assays. Qualitative assessments of cytotoxicity were done visually by inspecting the cells in the primary screening assays. For the quantitative assays, cells were plated in 96-well plates at 1.0×10^4 per well. The next day the compounds were added at 0.78 to 100 μM in a final concentration of 1% (v/v) DMSO, and the cells were incubated for 24 hours under conditions identical to those employed for the viral replication inhibition assays. Mitochondrial toxicity was measured by incubating the cells with 0.25 mg/mL thiazolyl blue tetrazolium bromide (MTT, SigmaAldrich Chemical Co.), the cultures were incubated for 60 min, metabolites were solubilized in acidic isopropanol, and absorbance was read at 570 nm. Cellular lysis was measured by detecting release of intracellular proteases with the CytoTox-Glo assay (Promega) according to the manufacturer's instructions. Percent viability was determined for each compound concentration from the maximal absorbance or luminosity data, and then CC50 values were calculated by non-linear curve fitting using GraphPad Prism.
as §4

HSV-1 [5] = test: HSV-1 replication inhibition in primary human foreskin fibroblasts; assay type: cell-based, herpes simplex virus 1; conditions: HFF cells, relative to DMSO-treated control
Method: as §2, §4

T1 sequence (P03159 693-845): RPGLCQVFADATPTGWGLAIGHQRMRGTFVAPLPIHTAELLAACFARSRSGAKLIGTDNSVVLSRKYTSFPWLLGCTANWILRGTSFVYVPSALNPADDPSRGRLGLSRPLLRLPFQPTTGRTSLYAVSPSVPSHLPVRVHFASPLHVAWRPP

Row | Compound | Anti-HBV RNaseH (HBV RNaseH) | Anti-HSV-1 Log10 suppression 5 μM (HSV-1 [1]) | Anti-HSV-1 Log10 suppression 50 μM (HSV-1 [1]) | Anti-HSV-2 Log10 suppression 5 μM (HSV-2 [2]) | Anti-HSV-2 Log10 suppression 50 μM (HSV-2 [2]) | Anti-Human RNaseH1 (human RNaseH1) | Inhibition of HSV-1 replication (in words) (HSV-1 [1]; primary screening) | Replication inhibition HSV-2 5 μM (HSV-2 [3]; 5 μM) | Replication inhibition HSV-2 50 μM (HSV-2 [3]; 50 μM) | CC50 [4] | Replication inhibition HSV-1 5 μM (HSV-1 [5]; 5 μM) | Replication inhibition HSV-1 50 μM (HSV-1 [5]; 50 μM) | Inhibition of HSV-2 replication (in words) (HSV-2 [2]; primary screening) | Anti-HSV-1 Log10 suppression 5 μM (screening symbol) (HSV-1 [1]) | Anti-HSV-1 Log10 suppression 50 μM (screening symbol) (HSV-1 [1]) | Anti-HSV-2 Log10 suppression 5 μM (screening symbol) (HSV-2 [2]) | Anti-HSV-2 Log10 suppression 50 μM (screening symbol) (HSV-2 [2])
1 | O=c1ccc2ccccc2n1O [Compound 43] | − (no inhibition at 60 μM) | 0.31 log10 | 1.31 log10 | 0.31 log10 | 1.13 log10 | − (no inhibition at 60 μM) |  |  |  |  |  |  |  |  |  |  | 
2 | Cc1nnc(C(=O)NC(C)(C)c2nc(C(=O)NCc3ccc(F)cc3)c(O)c(=O)n2C)o1 [Compound 11, Raltegravir, reference compound] | − (no inhibition at 60 μM) | 0.2 log10 | 0.37 log10 | 0.25 log10 | 0.35 log10 | − (no inhibition at 60 μM) |  |  |  |  |  |  |  |  |  |  | 
3 | CC(C)c1ccc(O)c(=O)cc1 [Compound 48, Gamma-thujaplicin] | − (no inhibition at 60 μM) | 0.31 log10 | 4.71 log10 | 0.20 log10 | 4.57 log10 | − (no inhibition at 60 μM) | negligible inhibitors | 0.20 log10 | 5.76 log10 | > 100 µM | 0.05 log10 | 5.99 log10 | negligible inhibitors |  |  |  | 
4 | Cc1cc(C)n(O)c(=O)c1C#N [Compound 44] | − (no inhibition at 60 μM) |  |  |  |  | − (no inhibition at 60 μM) |  |  |  |  |  |  |  | − | − | − | −
5 | O=c1c(O)c(-c2cc(O)c(O)c(O)c2)oc2cc(O)cc(O)c12 [Compound 9] | ++ (inhibition at 20 μM) | 0.30 log10 | 0.38 log10 | −0.04 log10 | 0.67 log10 | ++ (inhibition at 20 μM) |  |  |  |  |  |  |  |  |  |  | 
6 | O=c1cc2oc3cc(O)c(O)cc3c(-c3ccccn3)c-2cc1O [Compound 39] | +++ (inhibition at 10 μM) | 0.19 log10 | 0.22 log10 | 0.12 log10 | 0.17 log10 | +++ (inhibition at 10 μM) |  |  |  |  |  |  |  |  |  |  | 
7 | O=c1c(O)c(-c2ccc(O)c(O)c2)oc2cc(O)c(O)c(O)c12 [Compound 7] | − (no inhibition at 60 μM) | 0.44 log10 | 0.48 log10 | 0.03 log10 | 1.26 log10 | +++ (inhibition at 10 μM) |  |  |  |  |  |  |  |  |  |  | 
8 | Cc1c2cc(O)c(=O)cc-2oc2cc(O)c(O)cc12 [Compound 8] | ++ (inhibition at 20 μM) | −0.18 log10 | 0.86 log10 | 0.18 log10 | 2.49 log10 | +++ (inhibition at 10 μM) |  |  |  |  |  |  |  |  |  |  | 
9 | O=C1c2cccc3cccc(c23)C(=O)N1O [Compound 45] | − (no inhibition at 60 μM) |  |  |  |  | − (no inhibition at 60 μM) |  |  |  |  |  |  |  | − | − | − | −
10 | Cc1cc(=O)oc2cc(O)c(O)cc12 [Compound 34] | ++ (inhibition at 20 μM) | 0.08 log10 | 2.64 log10 | −0.07 log10 | 3.29 log10 | − (no inhibition at 60 μM) |  |  |  |  |  |  |  |  |  |  | 
11 | CCOC(=O)c1cc2ccccc2n(O)c1=O [Compound 42] | − (no inhibition at 60 μM) |  |  |  |  | + (inhibition at 60 μM) |  |  |  |  |  |  |  | − | − | − | −
12 | CN(C)c1ccc(-c2c3cc(O)c(=O)cc-3oc3cc(O)c(O)cc23)cc1 [Compound 35] | +++ (inhibition at 10 μM) |  |  |  |  | +++ (inhibition at 10 μM) |  |  |  |  |  |  |  | − | − | − | −
